Results as given in patent US6069156A, “Indole derivatives as cGMP-PDE inhibitors” (Fujisawa Pharmaceutical Co., Ltd., priority 1995, dated 2000).
pIC50: −log10 of the molar value. Read-outs that look alike come from different tables or passages of the source.

Assays:
[1] = tested on: aorta (spirally cut strips); assay: Smooth Muscle Relaxant: noradrenaline-contracted rat aorta strips; parameters: species or system male Wistar rats; conditions: contraction by noradrenaline 1 μM, 37° C.
Experimental: The aorta were carefully removed from male Wistar rats, cleaned of fat and extraneous tissue. Spirally cut strips of the aorta were placed in a 25 ml organ bath containing Tyrode solution of the following composition (mM); NaCl, 137; KCl, 2.7; CaCl2, 1.8; NaH2 PO4, 0.4; NaHCO3, 12.0; MgSO4, 1.1; glucose, 5.6. The bath was maintained at 37° C. and bubbled with 95% O2 and 5% CO2. The spirally cut strip was stretched to a resting force of 1.0 g, and the isometric contraction was recorded via a force development transducer on an ink writing recorder. Tissues were equilibrated for 60 minutes before contraction was induced by noradrenaline (NA, 1 μM). The test compounds were cumulatively added to organ bath in increasing concentrations ranging from 10^-8 to 10^-5 M, after maximum stable constriction to NA had been achieved.

cGMP-PDE = molecular target: T1, cGMP-PDE (Homo sapiens, UniProt O76074); assay: cGMP-phosphodiesterase (PDE) Assay (human platelets); type: biochemical
T1 construct: cGMP-PDE was separated from other isozymes in human platelets; from tissue; host or cells: human platelets
Experimental: cGMP-phosphodiesterase (PDE) Assay
cGMP-PDE was separated from other isozymes in human platelets by a modification of the method of Thompson et. al. (Cyclic Nucleotide Phosphodiesterase (PDE), in Methods of Enzymatic analysis, Vol 4, p127-234, 1984). In enzyme inhibition assays, the test compounds were dissolved in 10% DMSO and then diluted with assay buffer (50 mM Tris-HCl, pH 8.0, 0.1 mM dithiothreitol, 2 mM EGTA and 10 u/ml snake venom), at final concentrations ranging from 10^-10 to 10^-6 M. Assays were performed at 0.1 μM substrate ([^3 H]-cGMP) concentration, at 30° C. for 10 minutes using enzyme dilutions which gave 10-20% hydrolysis of substrate. Each assay was initiated by addition of substrate and terminated by addition of anion exchange resin (Dowex 1-X8, 25 μg/mg) followed by centrifugation for 10 minutes (3000 rpm, at 4° C.). Radioactivity of supernatant (^3 H-GMP) was assayed by liquid scintillation counting.

[2] = tested on: Coronary vasospasm induced with vasopressin; assay: Vasopressin Induced-vasospasm Model (ST segment depression); type: in vivo, Male Donryu rats; conditions: 10 mg/kg orally 30 minutes before vasopressin 0.2 iu/kg
Experimental: Vasopressin Induced-vasospasm Model
Male Donryu rats, weighing 160-200 g, were anesthetized intraperitoneally with sodium pentobarbital (60 mg/kg) 15 minutes before intravenous administration of vasopressin, and the femoral vein was cannulated with polyethylene tubing (diameter 0.8 mm). Coronary vasospasm was induced with vasopressin (0.2 iu/kg) dissolved in saline through the cannula in the femoral vein. The each test compound (10 mg/kg) was administered orally 30 minutes before the administration of vasopressin. The standard limb lead II of the electrocardiogram was recorded with an electrocardiograph. The depression of ST segment was measured as the difference in the amplitudes of the ST segment after and just before the administration of vasopressin. The amplitudes of ST segment were measured at intervals of 0.5 minutes for 5 minutes after administration of vasopressin.

[3] = tested on: Genital Grooming and Penile Erection; assay: Effect on Genital Grooming and Penile Erection in Male Mice; type: in vivo, male ICR mice; conditions: oral; observed for one hour; n=10
Experimental: (d) Effect of Tested Compound on Genital Grooming and Penile Erection in Male Mice
Eight weeks old male ICR mice were housed under standard conditions of temperature, lighting and water supply before the experiment.
The test compound was dissolved in PEG400. After oral administration of the test compound, each mouse was transferred to an individual cage.

[4] = Toxicity by repetitive oral administration; type: in vivo, SD rat; conditions: 32 mg/kg once a day orally, 14 consecutive days
[5] = tested on: Vascular smooth muscle cells (vSMCs); assay: vSMC Proliferation ([3H]-thymidine, PDGF-stimulated); type: cell-based, male Wistar rats; conditions: Rattus norvegicus, PDGF 10 ng/ml stimulation
Experimental: Vascular smooth muscle cells (vSMCs) were prepared from explants of the thoracic aorta of 10 week old male Wistar rats by a modification of the method of Ross (J. Cell Biol., 50: 172, 1971). They were cultured in DMEM containing 10% fetal calf serum, 1% penicillin G and 1% streptomycin at 37° C. in a 95% air, 5% CO2 humidified atmosphere. vSMCs were seeded in 24 well plates and cultured in the presence of 10% fetal calf serum for 3 days. Cell growth then was arrested by transfer to serum free DMEA. After 24 hours, each test compound or vehicle was added to medium for 1 hour, and then cells were stimulated by PDGF (10 ng/ml). After 24 hours of additional incubation, [^3 H]-thymidine (1 μCi/ml) was added during the final 4 hours of incubation time, and trichloracetic acid insoluble radioactivity was assayed by liquid scintillation counting.

FK506-induced nephritis = assay: Prevention of Experimental FK506-induced Nephritis by Cyclic Nucleotide Regulating Drugs (b); type: in vivo, male Sprague-Dawley rats; conditions: 20 mg/kg intramuscularly 30 minutes before FK506 10 mg/kg/day, 14 days
Experimental: (b) Prevention of Experimental FK506-induced Nephritis by Cyclic Nucleotide Regulating Drugs
FK506 was administered orally to male Sprague-Dawley rats (body weights; 292-329 g) fed with low sodium diet (0.05% Sodium) in a daily dose of 10 mg/kg/day for 14 days. FK506 was provided in a solid dispersion formulation and dissolved in distilled water to a final concentration of 2 mg/ml. Papaverine was dissolved in saline to 5 mg/ml. Dipyridamole (i.v. formulation; 5 mg/ml) was purchased from Dainippon Pharmaceutical Co., Ltd. Papaverine (20 mg/kg) or dipyridamole (20 mg/kg) was administered intramuscularly 30 minutes before FK506 dosing. After the final dosing of FK506, 24-hours urine was collected for urinalysis. Blood was withdrawn from the abdominal aorta under ether anesthesia 24 hours after final dosing of FK506, and plasma was separated for biochemical analysis and plasma renin activity measurements. The kidney was removed from each animal and was fixed with in 10% formalin solution for histological analysis.

FK506 nephritis = assay: FK506 Nephritis Model (a); type: in vivo, Spontaneously hypertensive rats; conditions: orally twice a day for two weeks; FK506 18 mg/kg daily for 1 week
Experimental: (§1) (a) Spontaneously hypertensive rats weighing 250-300 g were used. FK506 dissolved in olive-oil containing 5% ethanol was given orally to the animals in a daily dose 18 mg/kg for 1 week. After the last dosing of FK506, 24-hours urine was collected for urinalysis. Blood was withdrawn from the abdominal aorta under ether anesthesia 24 hours after the last dosing of FK506, and plasma was separated by centrifugation for biochemical analysis.
The each test compound was dissolved in PEG 400 and given orally by the volume of 1 ml/kg twice a day for two weeks.
(§2) Biochemistry and urinalysis: Urine volume, plasma creatinine, urine creatinine, blood urea nitrogen, plasma sodium, urine sodium, plasma potassium and urine potassium, were measured with an autoanalyzer (TBA-20R Toshiba, OM-6020 Daiichi Kagaku).

Cyclosporin nephritis = assay: Cyclosporin Nephritis Model; type: in vivo, Spontaneously hypertensive rats; conditions: 3.2 mg/kg orally twice a day for two weeks; cyclosporin 50 mg/kg daily
Experimental: Cyclosporin Nephritis Model
as §1, with “Spontaneously” for “(a) Spontaneously”, “Cyclosporin” for “FK506”, “50” for “18”, “2 weeks.” for “1 week.”, “cyclosporin,” for “FK506,”, “analysis. The animal were bled to death and kidneys were removed for histopathological examination.” for “analysis.”
The each test compound (3.2 mg/kg) was dissolved in PEG 400 and given orally by the volume of 1 ml/kg twice a day for two weeks.
as §2
Histopathology: The kidneys were fixed in phosphate-buffered 10% formalin and its paraffin specimens were prepared and these sections were stained with hematoxylin.

[6] = 0.1 μM [3H]-cGMP, 30° C., 10 minutes, read-out: IC50

Row | SMILES | pIC50 [1] | pIC50 (cGMP-PDE) | inhibiting activity (depression of ST segment) [2] | other results
1 | CC(C)Cc1c(C(=O)C(C)C)c2ccc(C(N)=O)cc2n1Cc1ccccc1Cl [Example 12, 1-(2-Chlorobenzyl)-2-isobutyl-3-isobutyrylindole-6-carboxamide] | > 7.00 | > 7.00 | more than 50% | 
2 | CCC(=O)c1c(CC)n(Cc2ccccc2Cl)c2cc(C#N)ccc12 [Example 42, 1-(2-chlorobenzyl)-2-ethyl-3-propionylindole-6-carbonitrile] |  | > 7.00 | more than 50% | 
3 | CCCc1c(C(=O)C(C)C)c2ccc(C(N)=O)cc2n1Cc1ccccc1[N+](=O)[O-] [37-(7), 3-Isobutyryl-1-(2-nitrobenzyl)-2-propylindole-6-carboxamide] | > 7.00 | > 7.00 |  | 
4 | CCCc1c(C(=O)C2CC2)c2ccc(C(N)=O)cc2n1Cc1cc2c(cc1Cl)OCO2 [73-(33), 1-(6-Chloro-3,4-methylenedioxybenzyl)-3-cyclopropanecarbonyl-2-propylindole-6-carboxamide] | > 7.00 | > 7.00 |  | 
5 | CCCc1c(C(=O)COC)c2ccc(C(N)=O)cc2n1Cc1cc2c(cc1Cl)OCO2 [Example 27-(8), 1-(6-Chloro-3,4-methylenedioxybenzyl)-3-methoxyacetyl-2-propylindole-6-carboxamide] | > 7.00 | > 7.00 |  | increase of the frequencies of genital grooming (average) [3]: 266%; lengthening of the duration of penile erection (average) [3]: 171%; death on repetitive oral administration [4]: the dead at dose of 32 mg/kg once a day for 14 consecutive days could not be observed; pIC50 [5]: > 7.00
6 | OCCN(CCO)c1nc(N2CCCCC2)c2nc(N(CCO)CCO)nc(N3CCCCC3)c2n1 [dipyridamole, Dipyridamole] |  |  |  | recovery in a measure of blood urea nitrogen (FK506-induced nephritis): more than 50%; recovery in a serum creatinine (FK506-induced nephritis): more than 50%; renofunction of FK506 dosed rats (FK506-induced nephritis): significantly improved renofunction
7 | CCc1c(C(=O)C(C)C)c2ccc(C#N)cc2n1Cc1ccccc1Cl [Example 43, 1-(2-Chlorobenzyl)-2-ethyl-3-isobutyrylindole-6-carbonitrile] | > 7.00 | > 7.00 | more than 50% | 
8 | NC(=O)c1ccc2c3c(n(Cc4cc5c(cc4Cl)OCO5)c2c1)C(=O)CCC3 [75-(8), 9-(6-Chloro-3,4-methylenedioxybenzyl)-8-oxo-5,6,7,8-tetrahydrocarbazole-2-carboxamide] | > 7.00 |  |  | pIC50 (cGMP-PDE; [6]): > 7.00
9 | CCCc1c(C(=O)c2ccccc2)c2ccc(C(N)=O)cc2n1Cc1ccccc1Cl [38-(1), 3-Benzoyl-1-(2-chlorobenzyl)-2-propylindole-6-carboxamide] |  |  | more than 50% | 
10 | O=C(O)C1CCN(c2nc(NCc3ccc4c(c3)OCO4)c3cc(Cl)ccc3n2)CC1 [compound (VIII), reference compound] |  |  |  | recovery in a measure of creatinine clearance (ml/kg/min) (FK506 nephritis): more than 45%; recovery in urinary sodium excretion (FK506 nephritis): more than 50%; recovery in a measure of blood urea nitrogen (Cyclosporin nephritis): more than 50%; recovery in a measure of creatinine clearance (ml/kg/min) (Cyclosporin nephritis): more than 40%
11 | CCCc1c(C(=O)C(C)C)c2ccc(C(N)=O)cc2n1Cc1ccccc1C [37-(4), 3-Isobutyryl-1-(2-methylbenzyl)-2-propylindole-6-carboxamide] | > 7.00 | > 7.00 |  | 
12 | CCCc1c([N+](=O)[O-])c2ccc(C(=O)OC)cc2n1Cc1ccccc1Cl [Example 72, methyl 1-(2-chlorobenzyl)-3-nitro-2-propylindole-6-carboxylate] | > 7.00 |  |  | pIC50 (cGMP-PDE; [6]): > 7.00
13 | CCCc1c(C(=O)C(C)C)c2ccc(C(N)=O)cc2n1Cc1ccc(F)cc1Cl [37-(9), 1-(2-Chloro-4-fluorobenzyl)-3-isobutyryl-2-propylindole-6-carboxamide] | > 7.00 | > 7.00 |  | 
14 | CCCc1c(C(=O)C2CCCC2)c2ccc(C(N)=O)cc2n1Cc1ccccc1Cl [73-(36), 1-(2-Chlorobenzyl)-3-cyclopentanecarbonyl-2-propylindole-6-carboxamide] | > 7.00 | > 7.00 |  | 
15 | COc1ccc(Cc2nccc3cc(OC)c(OC)cc23)cc1OC [Papaverine] |  |  |  | recovery in a measure of blood urea nitrogen (FK506-induced nephritis): more than 50%; recovery in a serum creatinine (FK506-induced nephritis): more than 50%; renofunction of FK506 dosed rats (FK506-induced nephritis): significantly improved renofunction
16 | CCCc1c(C(C)=O)c2ccc(C(N)=O)cc2n1Cc1ccccc1Cl [Example 3, 3-acetyl-1-(2-chlorobenzyl)-2-propylindole-6-carboxamide] |  | > 7.00 | more than 50% | recovery in a measure of blood urea nitrogen (Cyclosporin nephritis): more than 50%; recovery in a measure of creatinine clearance (ml/kg/min) (Cyclosporin nephritis): more than 40%; pIC50 [5]: > 7.00
17 | CCCc1nn(C)c2c(=O)[nH]c(-c3cc(S(=O)(=O)N4CCN(C)CC4)ccc3OCC)nc12 [compound (IX), reference compound] |  |  |  | recovery in a measure of blood urea nitrogen (Cyclosporin nephritis): more than 50%; recovery in a measure of creatinine clearance (ml/kg/min) (Cyclosporin nephritis): more than 40%
18 | CCc1c(C(=O)C(C)C)c2ccc(C(N)=O)cc2n1Cc1ccccc1Cl [37-(12), 1-(2-Chlorobenzyl)-2-ethyl-3-isobutyrylindole-6-carboxamide] | > 7.00 | > 7.00 | more than 50% | 
